Paper PMC9508196 (Scientific Reports, 2022)
Converted amounts (≈) assume the structure as drawn. Like-named read-outs stand apart in the source and are kept apart here.

Columns and labels:
[1] = test system: A. baumannii ATCC 19,606; experiment: microbe, parasite or virus in culture; format: cell-based, Acinetobacter baumannii
Source text: (§1) Ten strains of both Gram-positive and -negative bacteria, including Staphylococcus aureus ATCC 25,923, S. epidermidis ATCC 12,228, Bacillus cereus ATCC 11,778, Listeria monocytogenes 10403S, Salmonella typhimurium ATCC 13,311, Pseudomonas aeruginosa ATCC 27,853, Shigella sonnei ATCC 11,060, A. baumannii ATCC 19,606, Escherichia coli ATCC 25,922 and E. coli O157:H7, were used in this study. Eight clinical isolates of multidrug-resistant (MDR) and extensively drug-resistant (XDR) A. baumannii, isolated from human (blood, sputum, respiratory sample, sterile site sample and urine), were kindly provided by Asst. Prof. Dr. Sakawrat Kanthawong (Faculty of Medicine, Khon Kaen University, Thailand) (Table S1). All bacterial strains, excluding L. monocytogenes 10403S and E. coli, were cultured in tryptic soy broth (TSB). L. monocytogenes was grown in TSB supplemented with 0.6% yeast extract (TSB-YE), and E. coli was cultured in Luria broth (LB). All of bacteria were cultured at 37 °C with continuous shaking at 220 rpm.
(§2) Minimum inhibitory concentration (MIC) of peptides and antibiotics was assessed by a modified version of the broth microdilution method from the Clinical and Laboratory Standards Institute (CLSI) as previously described. In brief, mid-log phase growths of microbial strains were cultured in Müeller-Hinton broth (MHB) with an initial inoculum of 2–8 × 10^5 CFU/mL. Bacteria suspensions were incubated in sterile 96-well plates with test agents at desired concentrations. […] Minimum bactericidal concentration (MBC) determination was performed using a modified version of the colony count assay. In brief, fifty µl of all non-turbid wells from MIC experiments were spread on agar plates. The MBC value was defined as the lowest concentration of peptides with no colony growth on the plate. All assays were performed in triplicate.

[2] = test system: Bacillus cereus ATCC 11,778; format: cell-based; details: B. cereus ATCC 11,778; broth microdilution, MHB, 24 h, 37 °C, triplicate
Source text: as §1, §2

[3] = test system: Escherichia coli O157:H7 MT strain; format: cell-based; details: E. coli O157:H7 MT strain; broth microdilution, MHB, 24 h, 37 °C, triplicate
Source text: as §1, §2

[4] = test system: Listeria monocytogenes 10403S; format: cell-based; details: L. monocytogenes 10403S; broth microdilution, MHB, 24 h, 37 °C, triplicate
Source text: as §1, §2

[5] = test system: Pseudomonas aeruginosa ATCC 27,853; format: cell-based; details: P. aeruginosa ATCC 27,853; broth microdilution, MHB, 24 h, 37 °C, triplicate
Source text: as §1, §2

[6] = test system: Salmonella Typhimurium ATCC 13,311; format: cell-based; details: S. Typhimurium ATCC 13,311; broth microdilution, MHB, 24 h, 37 °C, triplicate
Source text: as §1, §2

[7] = test system: Shigella sonnei ATCC 11,060; format: cell-based; details: S. sonnei ATCC 11,060; broth microdilution, MHB, 24 h, 37 °C, triplicate
Source text: as §1, §2

[8] = test system: Staphylococcus epidermidis ATCC 12,228; format: cell-based; details: S. epidermidis ATCC 12,228; broth microdilution, MHB, 24 h, 37 °C, triplicate
Source text: as §1, §2

[9] = test system: mouse fibroblast (L929) cells; experiment: In vitro cytotoxicity assay (MTT); format: cell-based; details: 24 h, peptide 62.5 µg/mL
Experimental: The colorimetric 3-(4,5 dimethylthiazol-2-yl)-2,5-diphenyltetrazolium bromide (MTT; Invitrogen) dye reduction assay was used to determine the cytotoxicity of peptides on mouse fibroblast (L929) cells (NCTC clone 929) according to a modified MTT assay. L929 cells were cultured in Dulbecco’s Modified Eagle Medium (DMEM; Gibco) containing 10% fetal bovine serum (FBS; Gibco) and 100 U/ml penicillin–streptomycin in a fully humidified atmosphere of 95% air and 5% CO2 at 37 °C. The cells (10^5 cells/well) were seeded on 96-well plates and incubated with serially diluted peptide (0.98 to 250 μg/ml) for 24 h. At the end of incubation period, MTT solution (100 µl, 0.4 mg/ml) was added to each well and incubated for 4 h. The supernatants were removed and replaced by 100 µl of DMSO to dissolve the purple formazan crystals. Absorbance was measured using a MultiskanTM FC microplate reader at a wavelength of 570 nm. Cells without peptides served as negative controls. Cell viability (percentage) was calculated using the following equation: %Cell viability=OD570of treated sample-ODBlank/OD570of control-ODBlank×100%

[10] = test system: A. baumannii A-8.2–1 (XDR); experiment: microbe, parasite or virus in culture; format: cell-based, Acinetobacter baumannii; details: Acinetobacter baumannii
Source text: as §1, §2

[11] = test system: A. baumannii B-8.1–1 (MDR); experiment: microbe, parasite or virus in culture; format: cell-based, Acinetobacter baumannii; details: Acinetobacter baumannii
Source text: as §1, §2

[12] = test system: A. baumannii B-8.1–2 (MDR); experiment: microbe, parasite or virus in culture; format: cell-based, Acinetobacter baumannii; details: Acinetobacter baumannii
Source text: as §1, §2

[13] = test system: A. baumannii B-8.2–2 (XDR); experiment: microbe, parasite or virus in culture; format: cell-based, Acinetobacter baumannii; details: Acinetobacter baumannii
Source text: as §1, §2

[14] = test system: A. baumannii C-8.1–2 (MDR); experiment: microbe, parasite or virus in culture; format: cell-based, Acinetobacter baumannii; details: Acinetobacter baumannii
Source text: as §1, §2

[15] = test system: A. baumannii C-8.2–1 (XDR); experiment: microbe, parasite or virus in culture; format: cell-based, Acinetobacter baumannii; details: Acinetobacter baumannii
Source text: as §1, §2

[16] = test system: A. baumannii ATCC 19,606; experiment: microbe, parasite or virus in culture; details: for fold increase of MIC: serial passages at half-MIC
Experimental: A. baumannii ATCC 19,606 was adjusted to approximately 10^6 CFU/ml in MHB. […] After 24 h incubation, bacterial suspensions of the wells at half-MIC concentration of tested agent were taken and washed 2 times with MHB to prepare the next initial-passage of bacteria. Twenty repeat passages were performed for each tested compound. Along with the test, a negative control was included: the MIC value of bacteria cultured in MHB-deionized water after 20 passages.

[17] = test system: A. baumannii isolate A-8.2-1; experiment: Disk diffusion test (CLSI), antibiotic susceptibility profile; format: cell-based, Acinetobacter baumannii; details: CLSI breakpoints
Experimental: (§3) ^aAntibiotic susceptibility profile of all isolated strains was evaluated by disk diffusion test, using the standard protocol guide of the Clinical and Laboratory Standards Institute (CLSI), and interpreted as S: Susceptible to standard dosing regimen; I: Intermediate; R: Resistant (in accordance with the criteria of CLST breakpoints).

[18] = test system: A. baumannii isolate B-8.1-1; experiment: as above; format: cell-based, Acinetobacter baumannii; details: CLSI breakpoints
Experimental: as §3

[19] = test system: A. baumannii isolate B-8.1-2; experiment: as above; format: cell-based, Acinetobacter baumannii; details: CLSI breakpoints
Experimental: as §3

[20] = test system: A. baumannii isolate B-8.2-2; experiment: as above; format: cell-based, Acinetobacter baumannii; details: CLSI breakpoints
Experimental: as §3

[21] = test system: A. baumannii isolate C-8.1-2; experiment: as above; format: cell-based, Acinetobacter baumannii; details: CLSI breakpoints
Experimental: as §3

[22] = test system: A. baumannii isolate C-8.2-1; experiment: as above; format: cell-based, Acinetobacter baumannii; details: CLSI breakpoints
Experimental: as §3

[23] = test system: A. baumannii isolate D-10.1-1; experiment: as above; format: cell-based, Acinetobacter baumannii; details: CLSI breakpoints
Experimental: as §3

[24] = test system: A. baumannii isolate D-10.1-2; experiment: as above; format: cell-based, Acinetobacter baumannii; details: CLSI breakpoints
Experimental: as §3

## CC[C@H](C)[C@H](NC(=O)CN)C(=O)NCC(=O)N[C@@H](C)C(=O)N[C@H](C(=O)N[C@@H](CC(C)C)C(=O)N[C@@H](CCCCN)C(=O)N[C@H](C(=O)N[C@@H](CC(C)C)C(=O)N[C@H](C(=O)N[C@H](C(=O)NCC(=O)N[C@@H](CC(C)C)C(=O)N1CCC[C@H]1C(=O)N[C@@H](C)C(=O)N[C@@H](CC(C)C)C(=O)N[C@H](C(=O)N[C@@H](CO)C(=O)N[C@@H](Cc1c[nH]c2ccccc12)C(=O)N[C@H](C(=O)N[C@@H](CCCCN)C(=O)N[C@@H](CCCNC(=N)N)C(=O)N[C@@H](CCCCN)C(=O)N[C@@H](CCCNC(=N)N)C(=O)N[C@@H](CCC(N)=O)C(=O)N[C@@H](CCC(N)=O)C(N)=O)[C@@H](C)CC)[C@@H](C)CC)[C@@H](C)O)[C@@H](C)O)C(C)C)C(C)C [Melittin, reference compound]
[1]; A. baumannii ATCC 19,606, broth microdilution (modified CLSI), MHB, 2–8 × 10^5 CFU/mL, 24 h, 37 °C, triplicate
  MIC: 3.91 µg/mL (≈ 1.37 µM)
[2]
  MIC: 7.81 µg/mL (≈ 2.74 µM)
[3]
  MIC: 7.81 µg/mL (≈ 2.74 µM)
[4]
  MIC: 3.91 µg/mL (≈ 1.37 µM)
[5]
  MIC: 7.81 µg/mL (≈ 2.74 µM)
[6]
  MIC: 3.91 µg/mL (≈ 1.37 µM)
[7]
  MIC: 3.91 µg/mL (≈ 1.37 µM)
[8]
  MIC: 3.91 µg/mL (≈ 1.37 µM)
[9]
  cell viability: less than 5%

## C[C@@H](O)[C@H]1C(=O)N2C(C(=O)O)=C(S[C@@H]3CN[C@H](C(=O)N(C)C)C3)[C@H](C)[C@H]12 [Meropenem]
[10]
  MBC: 62.5 µg/mL (≈ 163 µM)
  MIC: 62.5 µg/mL (≈ 163 µM)
[1]; Acinetobacter baumannii, ATCC19
  MBC: 0.98 µg/mL (≈ 2.56 µM)
[1]; Acinetobacter baumannii, ATCC19, 24 h
  MIC: 0.98 µg/mL (≈ 2.56 µM)
[11]
  MBC: 15.6 µg/mL (≈ 40.8 µM)
  MIC: 0.98 µg/mL (≈ 2.56 µM)
[12]
  MBC: 125 µg/mL (≈ 326 µM)
  MIC: 125 µg/mL (≈ 326 µM)
[13]
  MBC: 125 µg/mL (≈ 326 µM)
  MIC: 125 µg/mL (≈ 326 µM)
[14]
  MBC: 125 µg/mL (≈ 326 µM)
  MIC: 125 µg/mL (≈ 326 µM)
[15]
  MBC: 250 µg/mL (≈ 652 µM)
  MIC: 125 µg/mL (≈ 326 µM)
[16]; Acinetobacter baumannii, ATCC19, 24 h, read-out: MIC after 20 passages
  MIC: 15.6 µg/mL (≈ 40.8 µM)
[16]; after passage 20
  fold increase in MIC compared to the first passage: 16 fold
[16]; day 4
  fold increase of MIC: 2 fold
[16]; day 6
  fold increase of MIC: 4 fold
[16]; day 11
  fold increase of MIC: eight
[17]
  Antibiotic susceptibility profile: R
[18]
  Antibiotic susceptibility profile: S
[19]
  Antibiotic susceptibility profile: R
[20]
  Antibiotic susceptibility profile: R
[21]
  Antibiotic susceptibility profile: R
[22]
  Antibiotic susceptibility profile: R
[23]
  Antibiotic susceptibility profile: R
[24]
  Antibiotic susceptibility profile: R
